The results in this text go back to the OPERA property sets (Mansouri et al. 2018).

In brackets after ≈: the same amount, converted by molar mass. Bounds are passed on as bounds.

For `O=C(O)c1c(Cl)c(Cl)c(Cl)c(Cl)c1C(O)=Nc1cccc(Cl)c1Cl`, the solubility (26 °C) is 31.3 µM (≈ 14 µg/mL).

On to `CCOc1ccccc1OS(=O)(=O)NC(O)=Nc1nc(OC)cc(OC)n1`, for which the lipophilicity (logP) was 2.89. The compound further had a solubility (pH 5.0, 20 °C) of 65.3 µM (≈ 26 µg/mL).

In turn, `C[Si](Cn1cncn1)(c1ccc(F)cc1)c1ccc(F)cc1` came in with a solubility (pH 7.2, 20 °C) of 171 µM (≈ 54 µg/mL).

Under “pH 5.1, 20 °C”, `C[C@H](Oc1ccc(Oc2nc3ccc(Cl)cc3o2)cc1)C(=O)O` displayed a solubility of 809 µM (≈ 270 µg/mL).

Regarding `O=C1c2ccccc2C(=O)N1SC(Cl)(Cl)Cl`, the solubility (25 °C) turned out to be 2.7 µM (≈ 0.8 µg/mL).

Regarding `CC(C)OC(=O)c1cc(C(=O)OC(C)C)cc([N+](=O)[O-])c1`, the solubility (20 °C) amounted to 9.14 µM (≈ 2.7 µg/mL).

As for `COC(=O)[C@@H](C)N(C(=O)c1ccccc1)c1ccc(F)c(Cl)c1`, the logP is 3.

In turn, `FC(F)C(F)(F)OCC(Cn1cncn1)c1ccc(Cl)cc1Cl` (stereo not drawn) registered a logP of 3.56.

For the compound `COCC(=O)N(c1c(C)cccc1C)C(C)C(=O)OC` (stereo not drawn), the solubility (24 °C) was 36400 µM (≈ 10200 µg/mL).

With `CCN(CC)C(=O)C(Cl)=C(C)OP(=O)(OC)OC`, the logP was determined as 0.79.

Compound `COc1nc(C)nc(NC(=O)NS(=O)(=O)c2ccccc2OCCCl)n1` came in with a logD (pH 5.0) of 1.1. The solubility (pH 5.0, 25 °C) came to 79.6 µM (≈ 32 µg/mL).

On to `CC(C)(C)[C@H](O)/C(=C\c1ccc(Cl)cc1)n1cncn1`, for which, where the note is “25 °C”, the solubility was determined as 28.8 µM (≈ 8.41 µg/mL).

For the compound `O=C(NC(=O)c1ccccc1Cl)Nc1ccc(OC(F)(F)F)cc1`, the logP stood at 4.91. Where the note is “20 °C”, this compound came in with a solubility of 0.0697 µM (≈ 0.025 µg/mL).

In turn, `CC(C)C1(C)N=C(c2nc3ccccc3cc2C(=O)O)NC1=O` (stereo not drawn) came in with a solubility (25 °C) of 289 µM (≈ 90 µg/mL).

On to `CCCCC(O)(Cn1cncn1)c1ccc(Cl)cc1Cl` (stereo not drawn), for which the logP stood at 3.9.

With `Cc1ccc(NC(O)=NC(C)(C)c2ccccc2)cc1`, the solubility (20 °C) is 4.47 µM (≈ 1.2 µg/mL).

In turn, `COc1cc(OC)nc(N=C(O)NS(=O)(=O)N(C)S(C)(=O)=O)n1` had a logP of 1.63.

In turn, `CC1(C)OC[C@@H]2O[C@@]3(C(=O)O)OC(C)(C)O[C@H]3[C@@H]2O1` displayed a logP of 1.35.

In turn, `CCN(Cc1c(F)cccc1Cl)c1c([N+](=O)[O-])cc(C(F)(F)F)cc1[N+](=O)[O-]` yielded a logP of 5.45.

The compound `O=C(NC(=O)c1c(F)cccc1F)Nc1ccc(OC(F)(F)C(F)OC(F)(F)F)c(Cl)c1` (stereo not drawn) displayed a logP of 5.27. Moreover, the solubility (25 °C) was found to be 0.108 µM (≈ 0.0531 µg/mL).

Turning to `CCSCCSP(=S)(OC)OC`, the logP is 3.15.

In turn, `CC(C)OC(=O)C(O)(c1ccc(Br)cc1)c1ccc(Br)cc1` gave a logP of 5.4.

As for `COc1cc(OC)nc(N=C(O)NS(=O)(=O)c2c(Cl)nc3ccccn23)n1`, where the note is “pH 5.1, 25 °C”, the solubility came to 16.3 µM (≈ 6.72 µg/mL).

`FC(F)(F)C(=NOCC1OCCO1)c1ccc(Cl)cc1` showed a logP of 2.9. Where the note is “20 °C”, the solubility is 96.9 µM (≈ 30 µg/mL).

Turning to `CO/C=C(/C(=O)OC)c1ccccc1Oc1cc(Oc2ccccc2C#N)ncn1`, the logP came out at 2.5. Also, the solubility (20 °C) was 14.9 µM (≈ 6 µg/mL).

Consider `CCOc1nc(NC)nc(NC(=O)NS(=O)(=O)c2ccccc2C(=O)OC)n1`, for which the logD (pH 5.0) was 1.59. Further, the solubility (pH 5.0, 25 °C) amounted to 4.14 µM (≈ 1.7 µg/mL).

For the compound `COCC(=O)N(c1c(C)cccc1C)N1CCOC1=O`, the logP amounted to 0.8. The compound further displayed a solubility (20 °C) of 12200 µM (≈ 3400 µg/mL).

`CC(C)NC(=O)N1CC(=O)N(c2cc(Cl)cc(Cl)c2)C1=O` displayed a log partition coefficient (logP) of 3.

With `Cc1cc(C)nc(Nc2ccccc2)n1`, under “pH 6.1”, the logD was found to be 2.84. This compound also came in with a solubility (pH 6.1, 25 °C) of 607 µM (≈ 121 µg/mL).

The compound `COC(=O)c1c(Cl)nn(C)c1S(=O)(=O)NC(=O)Nc1nc(OC)cc(OC)n1` displayed a solubility (pH 5.0, 20 °C) of 34.3 µM (≈ 14.9 µg/mL). The logD (pH 7.0) was -0.02.

Compound `C=CCOC1=NS(=O)(=O)c2ccccc21` had a solubility of 672 µM (≈ 150 µg/mL).

The compound `COc1cc(OC)nc(Oc2cccc(Oc3nc(OC)cc(OC)n3)c2C(=O)[O-])n1.[Na+]` registered a logP of -1.03.

As for `COC(=O)c1c(Cl)c(Cl)c(C(=O)OC)c(Cl)c1Cl`, the logP turned out to be 4.28. The compound further gave a solubility (25 °C) of 1.51 µM (≈ 0.5 µg/mL).

On to `C=C/C=C\CC1=C(C)[C@@H](OC(=O)[C@@H]2[C@@H](/C=C(\C)C(=O)OC)C2(C)C)CC1=O`, for which the logP stood at 4.3.

`CC#Cc1cc(C)nc(Nc2ccccc2)n1`: the logP stood at 3.28.

`COP(=O)(OC)SCn1c(=O)oc2cc(Cl)cnc21` gave a logP of 1.05.

Regarding `O=C(Nc1ccc(F)cc1F)c1cccnc1Oc1cccc(C(F)(F)F)c1`, the solubility (25 °C) was less than 0.127 µM.

As for `ClC=CCCl` (mixture of isomers), the logP was determined as 2.04.

Take `NC(=O)C1(N2C(=O)c3cccc(Cl)c3C2=O)CCCCC1`: for the setting “25 °C”, the solubility came to 97.8 µM (≈ 30 µg/mL).

The compound `CC1(C)CCC(Cc2ccc(Cl)cc2)C1(O)Cn1cncn1` (stereo not drawn) gave a logP of 3.85.

Turning to `COc1cc(OC)nc(NC(=O)NS(=O)(=O)c2c(-c3nnn(C)n3)cnn2C)n1`, the logP stood at 0.65. Besides, the solubility (pH 7.0, 20 °C) is 2470 µM (≈ 1050 µg/mL).

Regarding `CN(C)NC(=O)CCC(=O)O`, the logP is -1.5.

Turning to `CCOP(=S)(OCC)OC(Cl)C(Cl)(Cl)Cl` (stereo not drawn), the solubility (20 °C) was less than 2.98 µM.

Compound `CC(C)(SC(=O)N1CCCCC1)c1ccccc1` returned a logP of 4.02. Moreover, the solubility (25 °C) is 75.9 µM (≈ 20 µg/mL).

With `COC(C)(C)CCCC(C)C/C=C/C(C)=C/C(=O)OC(C)C` (stereo not drawn), the solubility stood at 4.51 µM (≈ 1.4 µg/mL).

A word on the solubility: it is how much of the substance goes into solution per volume. A high value points to much dissolved substance. A word on the logP: it is a log measure of how a compound divides between an organic and an aqueous phase. High values mean a more lipophilic compound, low ones a more hydrophilic compound. As usually defined, the logD is the decadic logarithm of the distribution of all forms, ionised or not, between an organic phase and buffer at a given pH. A low value points to lower lipophilicity.
